Measurements published in US20260108549A1, “MACROLIDE COMPOUND AND PREPARATION METHOD AND APPLICATION THEREOF” (INSTITUTE OF FEED RESEARCH, CHINESE ACADEMY OF AGRICULTURAL …, priority 2023, published 2026).
Values after ≈ are worked out from the molar mass of the structure shown.

How the values were obtained:
[1] = system: Escherichia coli ATCC 8099; assay: Antibacterial activity, broth microdilution MIC; format: cell-based; settings: for MIC: Escherichia coli, ATCC8099, broth microdilution, 37° C., 24 hours, working range 0.25-128 μg/mL (Gram-negative); for antibacterial effect compared with tylosin against Escherichia coli 8099: in vitro, comparison in words with positive control tylosin
Procedure: (§1) Test Example 1 Determination of the antibacterial activity of the compounds of the present invention The antibacterial activity of the compounds obtained in Examples 1-4 of the present invention were determined by using the broth microdilution method with tylosin as a positive control. A broth culture medium was added into a 96-well plate, a prepared compound solution was diluted two-fold serial dilution, and then inoculated with an appropriate amount of bacterial solution. After incubation for 24 hours, the minimum inhibitory concentration of the compound was observed. The culture medium used in the experiment was CAMHB broth, CAMHB+5% defibrillated sheep blood broth. The preserved bacteria strain was inoculated into a serum-supplemented medium and cultured at 37° C. for 16-18 hours. An appropriate amount of bacteria after the completion of subculture and saline were placed into a turbidimetric tube and calibrated to the McFarland standard with a McFarland turbidimeter. The bacterial suspension was diluted 10 times with saline to prepare test bacterial solutions of certain concentrations (5×10^5 to 5×10^6 cfu/mL) for later use. Tylosin and the compounds obtained in the examples were dissolved in methanol to the desired concentration of each compound (1.0 mg/mL), stored in sterilized brown vials, stoppered, and sealed for later use. The working concentration range against Gram-negative bacteria was 0.25 μg/mL to 128 μg/mL; and the working concentration range against Gram-positive bacteria was 0.098 μg/mL to 50 μg/mL. The 96-well plate micro double dilution method was used. […] Finally, the prepared bacterial solution (of a concentration of 5×10^5 to 5×10^6 cfu/mL) was added into the first well to the eleventh well, and the twelfth well was not added with the bacterial solution to serve as a blank control. The 96-well plate was placed in a 37° C. incubator, cultured in a static state for 24 hours to observe the bacterial growth in each well. The solution in the well that inhibited bacterial growth was transparent, and the solution in the well that could not inhibit bacterial growth was turbid. The concentration in the well with a transparent solution was selected to be the minimum inhibitory concentration (MIC) of the sample.

[2] = system: Streptococcus pneumoniae ATCC 49169; assay: Antibacterial activity, broth microdilution MIC; format: cell-based; settings: for MIC: Streptococcus pneumoniae, ATCC49169, broth microdilution, 37° C., 24 hours, working range 0.098-50 μg/mL (Gram-positive); for antibacterial effect compared with tylosin against Streptococcus pneumoniae ATCC 49169: in vitro, comparison in words with positive control tylosin
Procedure: as §1

SMILES	MIC [1]	antibacterial effect compared with tylosin against Escherichia coli 8099 [1]	MIC [2]	antibacterial effect compared with tylosin against Streptococcus pneumoniae ATCC 49169 [2]
CC[C@H]1OC(=O)C[C@@H](O)[C@H](C)[C@@H](O[C@@H]2O[C@H](C)[C@@H](O[C@H]3C[C@@](C)(O)[C@@H](O)[C@H](C)O3)[C@H](N(C)C)[C@H]2O)[C@@H](CCNCCCO)C[C@@H](C)C(=O)/C=C/C(C)=C/[C@@H]1CO[C@@H]1O[C@H](C)[C@@H](O)[C@@H](OC)[C@H]1OC [Ia, 20-(3-hydroxypropylamino) tylosin]	128 µg/mL (≈ 131 µM)	comparable antibacterial effect to tylosin	0.391 µg/mL (≈ 0.401 µM)	slightly better antibacterial effect than tylosin
CC[C@H]1OC(=O)C[C@@H](O)[C@H](C)[C@@H](O[C@@H]2O[C@H](C)[C@@H](O[C@H]3C[C@@](C)(O)[C@@H](O)[C@H](C)O3)[C@H](N(C)C)[C@H]2O)[C@@H](CCN(CCO)CCO)C[C@@H](C)C(=O)/C=C/C(C)=C/[C@@H]1CO[C@@H]1O[C@H](C)[C@@H](O)[C@@H](OC)[C@H]1OC [Ib, 20-(bis(2-hydroxyethylamino)) tylosin]	128 µg/mL (≈ 127 µM)		0.781 µg/mL (≈ 0.777 µM)	
CC[C@H]1OC(=O)C[C@@H](O)[C@H](C)[C@@H](O[C@@H]2O[C@H](C)[C@@H](O[C@H]3C[C@@](C)(O)[C@@H](O)[C@H](C)O3)[C@H](N(C)C)[C@H]2O)[C@@H](CCN2CCC[C@@H]2CO)C[C@@H](C)C(=O)/C=C/C(C)=C/[C@@H]1CO[C@@H]1O[C@H](C)[C@@H](O)[C@@H](OC)[C@H]1OC [Ic, 20-((R)-2-hydroxymethyltetrahydropyrrolyl) tylosin]	64 µg/mL (≈ 63.9 µM)	superior antibacterial effect to tylosin	0.195 µg/mL (≈ 0.195 µM)	superior antibacterial effect to tylosin
CC[C@H]1OC(=O)C[C@@H](O)[C@H](C)[C@@H](O[C@@H]2O[C@H](C)[C@@H](O[C@H]3C[C@@](C)(O)[C@@H](O)[C@H](C)O3)[C@H](N(C)C)[C@H]2O)[C@@H](CCN2CCC[C@H]2CO)C[C@@H](C)C(=O)/C=C/C(C)=C/[C@@H]1CO[C@@H]1O[C@H](C)[C@@H](O)[C@@H](OC)[C@H]1OC [Id, 20-((S)-2-hydroxymethyltetrahydropyrrolyl) tylosin]	128 µg/mL (≈ 128 µM)		0.781 µg/mL (≈ 0.78 µM)	
CC[C@H]1OC(=O)C[C@@H](O)[C@H](C)[C@@H](O[C@@H]2O[C@H](C)[C@@H](O[C@H]3C[C@@](C)(O)[C@@H](O)[C@H](C)O3)[C@H](N(C)C)[C@H]2O)[C@@H](CC=O)C[C@@H](C)C(=O)/C=C/C(C)=C/[C@@H]1CO[C@@H]1O[C@H](C)[C@@H](O)[C@@H](OC)[C@H]1OC [Tylosin, reference compound]	128 µg/mL (≈ 140 µM)		0.781 µg/mL (≈ 0.853 µM)	
